Read-outs that look alike come from different tables or passages of the source.
Experiments:
recombinant human PDE4 [1] = system: T1, recombinant human PDE4; assay: PDE4 inhibition, recombinant human PDE4 (charcoal separation PDE assay); type: biochemical
T1 construct: PDE4 IC50; other: human recombinant PDE4
Experimental: The compounds of structural formula (II) were tested for an ability to inhibit PDE4. The ability of a compound to inhibit PDE4 activity is related to the IC50 value for the compound, i.e., the concentration of inhibitor required for 50% inhibition of enzyme activity. The IC50 value for compounds of structural formula (II) were determined using recombinant human PDE4.
Phosphodiesterase activity of the preparations was determined as follows. PDE assays utilizing a charcoal separation technique were performed essentially as described in Loughney et al. (1996). In this assay, PDE activity converts [32P]cAMP or [32P]cGMP to the corresponding [32P]5′-AMP or [32P]5′-GMP in proportion to the amount of PDE activity present. The [32P]5′-AMP or [32P]5′-GMP then was quantitatively converted to free [32P]phosphate and unlabeled adenosine or guanosine by the action of snake venom 5′-nucleotidase. […] The assay was performed at 30° C. in a 100 μL reaction mixture containing (final concentrations) 40 mM Tris HCl (pH 8.0), 1 μM ZnSO4, 5 mM MgCl2, and 0.1 mg/mL bovine serum albumin (BSA). Alternatively, in assays assessing PDEl-specific activity, incubation mixtures further incorporated the use of 0.1 mM CaCl2 and 10 μg/mL calmodulin. PDE enzyme was present in quantities that yield <30% total hydrolysis of substrate (linear assay conditions). The assay was initiated by addition of substrate ([…] [32P]cAMP or cGMP), and the mixture was incubated for 12 minutes. Seventy-five (75) μg of Crotalus atrox venom then was added, and the incubation was continued for 3 minutes (15 minutes total). The reaction was stopped by addition of 200 μL of activated charcoal (25 mg/mL suspension in 0.1 M NaH2PO4, pH 4). After centrifugation (750×g for 3 minutes) to sediment the charcoal, a sample of the supernatant was taken for radioactivity determination in a scintillation counter and the PDE activity was calculated.
The table below illustrates the ability of compounds of formula (II) to inhibit PDE4 activity and TNFα release in vitro. In the following table, the IC50 values were determined against human recombinant PDE4.

[2] = system: human peripheral blood lymphocytes (PBL); assay: Lipopolysaccharide-stimulated TNFα release from human peripheral blood lymphocytes; type: cell-based; settings: LPS-stimulated TNFα release from human PBL
Experimental: The compounds of structural formula (II) also were tested for an ability to reduce TNFα secretion in human peripheral blood lymphocytes. The ability to reduce TNFα secretion is related to the EC50 values (i.e., the effective concentration of the compound capable of inhibiting 50% of the total TNFα).
To assess the ability of a compound to reduce TNFα secretion in human peripheral blood lymphocytes (PBL), the following tests were performed.
Heparinized blood (approximately 30 mL) drawn from human volunteers was mixed 1:1 with Dulbecco's modified phosphate-buffered saline. This mixture was mixed 1:1 with HISTOPAQUE® and centrifuged at 1,500 rpm at room temperature without braking in the swinging bucket of a Beckman model TJ6 centrifuge. Erythrocytes were centrifuged to the bottom of the tubes, and serum remained at the surface of the tubes. A layer containing lymphocytes sedimented between the serum and HISTOPAQUE® layers, and was removed by aspiration to a fresh tube. The cells were quantified and adjusted to 3×10^6 cells/mL and a 100 μL aliquot is placed into the wells of a 96 well plate. Test compounds and RPMI media (Gibco/BRL Life Sciences) are added to each of the wells 15 minutes prior to addition of bacterial LPS ([…]). The mixture was allowed to incubate for 20 hours at 37° C. in a humidified chamber. The cells then were separated by centrifuging at 800 rpm for 5 minutes at room temperature. An aliquot of 180 μL of supernatant was transferred to a new plate for determination of TNFα concentration. TNFα protein in the cell supernatant fluids was measured using a commercially available enzyme-linked immunosorbent assay (ELISA) (CYTOSCREEN® Immunoassay Kit from Biosource International).
The cell-based assay provided the following results for various pyrrolidine compounds of the present invention. The EC50 values (i.e., effective concentration of the compound capable of inhibiting 50% of the total TNFα) illustrate the ability of the present compounds to inhibit LPS-stimulated TNFα release from human PBL.

female Balb/c mice = assay: Combined mouse endotoxin-stimulated TNFα release and locomotor activity assay (spontaneous mobility); type: in vivo; settings: i.p., 50 mg/kg dose, locomotor activity
Experimental: (§1) The purpose of this study was to determine the efficacy of PDE4 inhibitors in vivo in an LPS mouse model together with a determination with respect to central nervous system (CNS) side-effects manifested by a decrease in spontaneous mobility.
(§2) The test animals were female Balb/c mice, having an average weight of about 20 g. The PDE4 inhibitors, formulated in 30% Cremophor® EL, were administered via intraperitoneal (i.p.) injections at doses of 0.1, 1.0, 10.0, and 100 mg/kg. Individual dose volumes (about 150 μL) were adjusted based on the body weights measured. One hour later, 5 mg/kg LPS in a final volume of 200 μL was injected via the tail vein to each animal. Ninety minutes following the LPS treatment, the animals were bled and serum samples were collected before being stored at −70° C. until assayed.
(§3) Movement of the X-Y plane, or rearina up on the hind legs, was quantified by counting the number of “light-beam” crosses per unit of time. A decrease in the number of activity events is directly proportional to the mobility or immobilization of the animal. The quantitative scoring correlated well with the subjective measurements described above.
(§4) The following table summarizes the locomotor activity assay (mobility, % activity) results obtained by the above-described method:
(§5) effective dose, in mg/kg, that decreases spontaneous mobility 50% of control.

[3] = as above; type: in vivo; settings: female, Balb/c, in vivo, ip, locomotor activity, read-out: ED50 (effective dose that decreases spontaneous mobility 50% of control)
Experimental: as §1, §2, §3, §4, §5

[4] = in vivo; cited from earlier work
recombinant human PDE4 [5] = settings: prior art value; read-out: IC50 with respect to inhibiting recombinant human PDE4 (reported); cited from earlier work

CN/N=C(\C)C1(C)CN(C(=O)OC)CC1c1ccc(OC)c(OC2CCCC2)c1 (single isomer, unassigned) [Example 1a]
IC50 (recombinant human PDE4 [1]): 116 nM | EC50 [2]: 76 nM | Mobility (% activity at 50 mg/kg dose) (female Balb/c mice): 64% activity

COC(=O)N1CC(c2ccc(OC)c(OC3Cc4ccccc4C3)c2)[C@](C)(/C(C)=N\O)C1 (mixture of isomers) [Example 3]
IC50 (recombinant human PDE4 [1]): 189 nM | EC50 ([2]; Homo sapiens, Lymphocyte): 551 nM

COC(=O)N1CC(c2ccc(OC)c(OC3CCCC3)c2)[C@](C)(/C(C)=N\O)C1 (some centres unmarked) [Example 2a]
IC50 (recombinant human PDE4 [1]): 49 nM | EC50 ([2]; Homo sapiens, Lymphocyte): 281 nM | ED50 [3]: > 50 mg/kg

COc1ccc([C@@H]2CNC(=O)C2)cc1OC1CCCC1 [R-rolipram]
Emetic potency relative to the (+)-enantiomer [4]: about ten-fold more emetic

COC(=O)N1CC(c2ccc(OC)c(OC3CCCC3)c2)C(C)(C(C)=O)C1 (centres unmarked) [formula (I)]
IC50 (recombinant human PDE4 [5]): ~2 nM

CN/N=C(\C)C1(C)CN(C(=O)OC)CC1c1ccc(OC)c(OC2CCCC2)c1 (single isomer, unassigned) [Example 1b]
IC50 (recombinant human PDE4 [1]): 2.2 nM | EC50 [2]: 2.2 nM | Mobility (% activity at 50 mg/kg dose) (female Balb/c mice): 6% activity

COC(=O)N1CC(c2ccc(OC)c(OC3CCCC3)c2)[C@@](C)(/C(C)=N\O)C1 (some centres unmarked) [Example 2b]
IC50 (recombinant human PDE4 [1]): 2.2 nM | EC50 ([2]; Homo sapiens, Lymphocyte): 23 nM | ED50 [3]: 7 mg/kg

COc1ccc(C2CNC(=O)C2)cc1OC1CCCC1 (centres unmarked) [Rolipram]
IC50 (recombinant human PDE4 [5]): ~200 nM

— patent publication US6500856B2, “Cyclic AMP-specific phosphodiesterase inhibitors” (Icos Corporation, priority 1999, dated 2002)
